pIC50: −log10 of the molar value. Entries after “also recorded” stand apart in the source; their conditions may differ.
What was measured:
Human HDAC1 = biological target: T1, Human HDAC1 (Homo sapiens, UniProt Q13547); assay: HDAC isoform inhibition, HDAC1; type: biochemical; details: duplicate 10-dose IC50 mode, 3-fold serial dilution starting at 30 μM
T1 construct: Full length with C-terminal GST tag, MW=79.9 kDa; GST (C); host or cells: Sf9 insect cells, baculovirus expression system

Human HDAC6 = biological target: T2, Human HDAC6 (Homo sapiens, UniProt Q9UBN7); assay: HDAC isoform inhibition, HDAC6; type: biochemical; details: for IC50: duplicate 10-dose IC50 mode, 3-fold serial dilution starting at 30 μM; for Selectivity HDAC1/HDAC6: ratio of HDAC1 IC50 to HDAC6 IC50
T2 construct: Full length with N-terminal GST tag, MW=159 kDa; GST (N); host or cells: Sf9 insect cells, baculovirus expression system
T2 sequence (Q9UBN7 1-1215): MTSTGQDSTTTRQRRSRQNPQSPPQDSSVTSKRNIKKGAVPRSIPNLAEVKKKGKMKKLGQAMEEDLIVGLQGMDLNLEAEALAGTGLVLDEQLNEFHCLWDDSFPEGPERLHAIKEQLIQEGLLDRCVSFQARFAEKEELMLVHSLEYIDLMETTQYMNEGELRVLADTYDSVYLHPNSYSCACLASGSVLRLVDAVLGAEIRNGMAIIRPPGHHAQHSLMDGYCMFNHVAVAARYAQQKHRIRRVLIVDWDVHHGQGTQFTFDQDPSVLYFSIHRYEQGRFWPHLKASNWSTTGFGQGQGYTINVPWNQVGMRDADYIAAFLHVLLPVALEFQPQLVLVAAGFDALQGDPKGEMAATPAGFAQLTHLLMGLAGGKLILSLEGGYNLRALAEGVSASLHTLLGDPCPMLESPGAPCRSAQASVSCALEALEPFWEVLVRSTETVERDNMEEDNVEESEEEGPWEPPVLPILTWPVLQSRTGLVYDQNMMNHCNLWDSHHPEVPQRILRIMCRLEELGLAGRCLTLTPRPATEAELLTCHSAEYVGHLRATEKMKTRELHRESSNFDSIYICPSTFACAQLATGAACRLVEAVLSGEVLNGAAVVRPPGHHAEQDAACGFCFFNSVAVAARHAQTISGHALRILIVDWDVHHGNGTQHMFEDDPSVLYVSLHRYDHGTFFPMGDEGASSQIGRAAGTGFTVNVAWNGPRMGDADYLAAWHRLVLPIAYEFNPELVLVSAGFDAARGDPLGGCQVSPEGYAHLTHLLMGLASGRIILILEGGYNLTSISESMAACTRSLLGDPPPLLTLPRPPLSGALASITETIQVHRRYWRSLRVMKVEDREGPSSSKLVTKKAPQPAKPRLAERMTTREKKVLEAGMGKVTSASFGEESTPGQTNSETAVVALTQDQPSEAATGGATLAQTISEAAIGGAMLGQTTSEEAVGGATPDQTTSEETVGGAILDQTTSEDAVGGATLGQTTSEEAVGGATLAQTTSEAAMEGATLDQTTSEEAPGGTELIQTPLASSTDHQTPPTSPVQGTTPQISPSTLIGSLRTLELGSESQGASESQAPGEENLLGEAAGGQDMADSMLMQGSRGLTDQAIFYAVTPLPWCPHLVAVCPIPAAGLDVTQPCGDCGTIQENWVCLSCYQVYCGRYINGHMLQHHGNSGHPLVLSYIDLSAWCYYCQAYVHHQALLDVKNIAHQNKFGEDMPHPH

[1] = system: Human melanoma WM164 cells; assay: Immunoblot of acetylated tubulin in WM164 cells; type: cell-based; details: different concentrations, presence or absence of IL-6 (30 ng/uL) or IFNg (100 ng/uL)
Method: Human Melanoma cells WM164 were cultured in RPMI 1640 media, supplemented with 10% FBS, penicillin/streptomycin (50 U/ml), L-glutamine (2 mM), and 2-mercaptoethanol (50 μM) (complete media), and grown under humidified conditions at 37° C. and 5% CO2.
The cells were lysed in a buffer containing 280 mM NaCl, 50 mM Tris HCL PH 8.0, 0.5% Igepal, 5 mM MgCl2, 10% glycerol and 1× protease inhibitor (Roche), phosphatase inhibitor (Santa Cruz Biotechnology). Lysates were sonicated on ice for […] (2 cycles of 30 s on, 30 s rest) and then mixed with 6× gel loading buffer and boiled for 5 minutes. Samples were then resolved on 10% or 4-15% gradient gels and transferred to nitrocellulose membranes. Membranes were blocked with 5% milk-PBS-Tween. Bands were detected by scanning blots with an LI-COR Odyssey imaging system using both 700 and 800 channels. The antibodies used for immunobloting included Anti-acetyl-α-Tubulin (SC-23950) and anti-α-Tubulin (SC-32293), which were purchased from Santa Cruz Biotechnology. Anti-HDAC6 (C0226) was from Assay Biotech. Anti-GAPDH (68795) was from Sigma Aldrich. Anti STAT3 (12640), anti P-STAT3 Y-705 (9138), anti P-STAT3 S727 (9136), and anti Acetil-STAT3 (2523) were purchased from Cell signaling. Anti PD-L1 (PA5-28115) was obtained from Thermo Scientific. Anti-FLAG (F1804) antibody was from Sigma. […]

[2] = system: Human melanoma WM164 cells; assay: HDAC assay in WM164 cells; type: cell-based; details: different concentrations
[3] = system: Human melanoma WM164 cells; assay: Cytotoxicity assay (CellTox) in WM164 cells; type: cell-based; details: different concentrations, 24 hour reading
Method: All cells were cultured in RPMI 1640 media, supplemented with 10% FBS, penicillin/streptomycin (50 U/ml), L-glutamine (2 mM), and 2-mercaptoethanol ([…]) (complete media), and grown under humidified conditions at 37° C. and 5% CO2.
Cells were plated at a desired density in a black, flat clear bottom, 96 well plate. After 24 hours of cell growth, the media was removed from all the wells, fresh media was added with the fluorescent CellTox dye, using the manufactured protocol. The plate was then treated with the compounds of interest at the various concentrations of the compound. Immediately after plating, a baseline reading was performed. The plate was then incubated for 24 hours before the next reading was done, which was considered the 24 hour reading. Assay measurements were collected using the SoftMax Pro Microplate Data Acquisition and Analysis Software paired with Molecular Devices spectrophotometer (SpectraMax).
Human melanoma WM164 cells were treated with different concentrations SS-2-08 and SS-01-100 to evaluate the HDAC activity associated with the potential cytotoxic effect of these compounds.

[4] = Liver microsomal stability, mouse; type: in vitro ADME; details: mouse liver microsomes
[5] = Liver microsomal stability, human; type: in vitro ADME; details: human liver microsomes
[6] = Hepatocyte stability, mouse; type: in vitro ADME; details: mouse hepatocytes
[7] = Hepatocyte stability, human; type: in vitro ADME; details: human hepatocytes
[8] = system: Salmonella typhimurium (TA98 and TA1537); assay: Mini-Ames test; type: cell-based; details: two Salmonella typhimurium strains, presence and absence of S9 mix
Method: […]. SS-2-08 was incubated with two strains of Salmonella typhimurium (TA98 and TA1537) in the presence and absence of mammalian microsomal enzymes (S9 mix) to investigate the possible mutagenicity of this compound. […].

[9] = system: Murine melanoma SM1 cells; assay: ApoTox-Glo Triplex Assay, apoptosis; type: cell-based
Method: Murine melanoma SM1 cells were cultured in RPMI 1640 medium supplemented with: 1% minimum essential medium (MEM) non-essential amino acids solution, 10% fetal bovine serum (FBS), and 1% penicillin-streptomycin (P/S) then grown under humidified conditions at 37° C. and 5% CO2.
The assay controls—Digitonin (D141-100MG), Ionomycin (I064-1MG) and Mitomycin C (M4287-2MG)—were purchased from Sigma. Through a control plate evaluation, the optimal control concentration was selected for HDACi on the compound plates—30 μg/mL Digitonin, 100 μM Ionomycin, and 25 μg/mL Mitomycin.
Murine melanoma cells were treated with individual HDACi along with the protocol recommended assay controls. Following the manufacturers protocol, Viability/Cytotoxity reagents were added—fluorescence was measured at […] 400Ex/505Em (viability) and 485Ex/520Em (cytotoxicity). Next, the Caspase 3/7 reagent was added, after incubation, luminescence was measured at Lm578 (apoptosis). Assay measurements were collected using the SpectraMax. During analysis, LBH is used as the control compound.

SM1 melanoma tumor = assay: Syngeneic SM1 murine melanoma tumor model; type: in vivo, C57/BL/6 mice; details: 25 mg/kg and 50 mg/kg intraperitoneally, three times a week
Method: Animal experiments involving mice were performed in accordance to all approved protocols by the IACUC at The George Washington University. C57/BL/6 mice were obtained from Charles River (Massachusetts-Wilmington, USA). Mice for the in vivo tumor studies were subcutaneously injected in the right flank with 1.0×10^6 SM1 melanoma cells suspended in 100 μL 1× Phosphate Buffer Saline (PBS). After subcutaneous injection, tumor growth was monitored until they became palpable. Once palpable (5-8 mm in diameter), the animals were then treated with a vehicle control, or SS-2-08 at a dose of 25 mg/kg and 50 mg/kg, intraperitoneally, three times a week. Tumor growth was recorded twice a week. When the tumors reached 4000 mm^3, mice were euthanized. The values collected are represented as the mean tumor volume (mm^3) and standard deviation for treatment groups.

hERG = hERG (Homo sapiens, UniProt Q12809); assay: cell-based
Sequence of hERG (Q12809 whole entry): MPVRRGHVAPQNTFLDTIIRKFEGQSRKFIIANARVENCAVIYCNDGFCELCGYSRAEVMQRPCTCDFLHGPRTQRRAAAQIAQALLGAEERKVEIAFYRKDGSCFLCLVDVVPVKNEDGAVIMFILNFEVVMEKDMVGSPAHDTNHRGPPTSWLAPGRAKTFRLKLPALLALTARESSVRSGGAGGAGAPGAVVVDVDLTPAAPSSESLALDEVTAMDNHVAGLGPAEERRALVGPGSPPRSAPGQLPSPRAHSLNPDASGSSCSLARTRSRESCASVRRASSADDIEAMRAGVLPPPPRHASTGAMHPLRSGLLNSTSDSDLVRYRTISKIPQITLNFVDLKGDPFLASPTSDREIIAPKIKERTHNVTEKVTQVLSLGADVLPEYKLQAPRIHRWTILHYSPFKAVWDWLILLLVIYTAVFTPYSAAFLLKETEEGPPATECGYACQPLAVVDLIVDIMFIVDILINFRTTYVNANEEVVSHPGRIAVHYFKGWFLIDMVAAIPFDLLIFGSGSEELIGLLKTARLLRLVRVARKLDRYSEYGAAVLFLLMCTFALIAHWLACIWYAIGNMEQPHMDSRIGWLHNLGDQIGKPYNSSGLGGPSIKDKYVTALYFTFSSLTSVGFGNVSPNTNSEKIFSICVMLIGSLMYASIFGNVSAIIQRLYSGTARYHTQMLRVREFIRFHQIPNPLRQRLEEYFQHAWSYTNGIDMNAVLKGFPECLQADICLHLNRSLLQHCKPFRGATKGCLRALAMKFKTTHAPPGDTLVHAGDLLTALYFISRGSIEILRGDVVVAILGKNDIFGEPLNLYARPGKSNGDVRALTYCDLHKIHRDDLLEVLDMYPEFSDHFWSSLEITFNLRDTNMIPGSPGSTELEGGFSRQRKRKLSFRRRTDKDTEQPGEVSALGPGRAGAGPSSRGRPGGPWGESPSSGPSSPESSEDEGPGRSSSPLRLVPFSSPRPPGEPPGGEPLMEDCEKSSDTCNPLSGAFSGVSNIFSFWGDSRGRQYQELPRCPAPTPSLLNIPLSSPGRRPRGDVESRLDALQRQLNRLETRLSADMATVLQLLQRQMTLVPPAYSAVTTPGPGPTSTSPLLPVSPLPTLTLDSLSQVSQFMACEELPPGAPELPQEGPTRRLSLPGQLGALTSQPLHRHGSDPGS

T1 sequence (Q13547 whole entry, canonical isoform): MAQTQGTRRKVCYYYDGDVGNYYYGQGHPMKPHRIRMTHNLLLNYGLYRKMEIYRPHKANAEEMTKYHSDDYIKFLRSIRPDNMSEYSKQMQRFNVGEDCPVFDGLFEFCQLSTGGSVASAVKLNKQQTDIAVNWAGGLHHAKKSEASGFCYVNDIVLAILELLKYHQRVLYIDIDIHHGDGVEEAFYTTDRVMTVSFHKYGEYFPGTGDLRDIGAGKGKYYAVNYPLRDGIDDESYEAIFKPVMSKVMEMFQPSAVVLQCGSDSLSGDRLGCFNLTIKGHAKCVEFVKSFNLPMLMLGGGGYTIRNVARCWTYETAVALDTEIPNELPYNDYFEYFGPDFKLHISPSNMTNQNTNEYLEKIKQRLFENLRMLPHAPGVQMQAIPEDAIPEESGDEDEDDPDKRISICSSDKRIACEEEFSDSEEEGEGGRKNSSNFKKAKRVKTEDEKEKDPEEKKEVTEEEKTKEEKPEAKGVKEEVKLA

| Structure (SMILES) | IC50 (Human HDAC6) [nM] | IC50 (Human HDAC1) [nM] | Selectivity HDAC1/HDAC6 (Human HDAC6) | other results |
| --- | --- | --- | --- | --- |
| O=C(NO)c1cc(CCCCN2c3ccc(Cl)cc3CCc3cc(Cl)ccc32)on1 [SS-1-54, 5-(4-(2,8-dichloro-10,11-dihydro-5H-dibenzo[bf]azepin-5-yl)butyl)-N-hydroxyisoxazole-3-carboxamide] | 1340 |  |  | IC50 (nM) HDAC1 (Human HDAC1): No inhibition |
| O=C(NCCc1cc(C(=O)NO)no1)c1ccc(Cl)c(Cl)c1 [SS-2-08, 5-(2-(3,4-dichlorobenzamido)ethyl)-N-hydroxyisoxazole-3-carboxamide] |  |  |  | Liver microsomal stability (t1/2 min, with NADPH) Mouse [4]: 0.617 h; Liver microsomal stability (t1/2 min, with NADPH) Human [5]: 2.25 h; Hepatocyte stability (t1/2 min) Mouse [6]: 0.367 h; Hepatocyte stability (t1/2 min) Human [7]: 1.8 h; Mini-Ames test [8]: No significant number of revertant colonies; also recorded: Negative; levels of acetylated tubulin [1]: increased; HDAC activity [2]: reduced the HDAC activity in a dose-dependent manner; cytotoxicity [3]: minimal cytotoxicity effects; apoptosis (Caspase 3/7) [9]: does not induce apoptosis; tumor growth (SM1 melanoma tumor): reduces in vivo tumor growth; pIC50 (hERG): < 4.52 |
| O=C(NO)c1cc(CCCCN2CCCc3cc(Cl)ccc32)on1 [SS-4-01, 5-(4-(6-chloro-3,4-dihydroquinolin-1(2H)-yl)butyl)-N-hydroxyisoxazole-3-carboxamide] | 1990 | 44000 | 22 |  |
| CC1(C)CCN(CCCCc2cc(C(=O)NO)no2)c2ccc(Cl)cc21 [SS-4-02, 5-(4-(6-chloro-4,4-dimethyl-3,4-dihydroquinolin-1(2H)-yl)butyl)-N-hydroxyisoxazole-3-carboxamide] | 4360 | 174000 | 40 |  |

Further lines, with some results ahead:

| IC50 (Human HDAC6) [nM] | IC50 (Human HDAC1) [nM] | Selectivity HDAC1/HDAC6 (Human HDAC6) | Structure (SMILES) | other results |
| --- | --- | --- | --- | --- |
| 194 |  |  | O=C(NCCc1cc(C(=O)NO)no1)c1ccccc1 [SS-1-100, 5-(2-Benzamidoethyl)-N-hydroxyisoxazole-3-carboxamide] | IC50 (nM) HDAC1 (Human HDAC1): No inhibition; levels of acetylated tubulin [1]: increased; HDAC activity [2]: reduced the HDAC activity in a dose-dependent manner; cytotoxicity [3]: minimal cytotoxicity effects |
| 10.3 | 3030 | 294 | O=C(NCCc1cc(C(=O)NO)no1)c1ccc2ccccc2c1 [SS-3-66, 5-(2-(2-naphthamido)ethyl)-N-hydroxyisoxazole-3-carboxamide] |  |
| 24.1 | 2040 | 85 | O=C(NCCc1cc(C(=O)NO)no1)c1cccc(-c2ccccc2)c1 [SS-3-67, 5-(2-([1,1′-biphenyl]-3-ylcarboxamido)ethyl)-N-hydroxyisoxazole-3-carboxamide] |  |
| 693 | 11200 | 16 | O=C(NO)c1cc(CCCCn2ccc3cc(Cl)c(Cl)cc32)on1 [SS-3-94, 5-(4-(5,6-dichloro-1H-indol-1-yl)butyl)-N-hydroxyisoxazole-3-carboxamide] |  |
| 195 |  |  | O=C(NO)c1cc(CCCOc2ccc(Cl)c(Cl)c2)on1 [SS-4-10, 5-(3-(3,4-dichlorophenoxy)propyl)-N-hydroxyisoxazole-3-carboxamide] |  |

Source: US12522572B2, “Isoxazole hydroxamic acids as histone deacetylase 6 inhibitors” (The George Washington University, A Congressionally …, priority 2017, dated 2026)
